The text below walks through data of PMC6290777, “Inhalation of the prodrug PI3K inhibitor CL27c improves lung function in asthma and fibrosis” (Nature Communications, 2018).

In series [1] the test system is Akt phosphorylation (Ser473) in bone marrow-derived macrophages (BMDM). Description: Akt phosphorylation in BMDM stimulated with C5a. Format: cell-based, mouse. The following applies: C5a 25 nM. Here is the method:
BMDMs were obtained from bone marrows isolated from femurs and tibias of C57BL/6J mice. Bone marrow cells were cultured in a petri plate in the presence of RPMI additioned with 30% L-cell conditioned medium (supernatant of 5 days culture of L929 cells), 20% FBS and 100 μg/ml penicillin and streptomycin. After about 7 days, almost all cells became attached BMDM. BMDM were pretreated with Versene (GIBCO^TM #15040066) to detach them from the plate, washed, and placed on a 24 wells culture plate at a density of 2 × 10^5 cell/well in RPMI free medium. After 6 h of starvation, BMDMs were pretreated with CL27c at different concentrations and stimulated with C5a (25 nM, Sigma-Aldrich #SRP4895A) for 5 min. Proteins were extracted with Laemnli buffer.
For all cell types, phosphorylated Akt (P-Akt, Ser 473, 1:100, Cell Signaling Technology #4060) production was detected by western blot analysis and quantified with ChemiDoc™ XRS system. P-Akt signals are normalized on endogenous. For the calculation of EC50 values, a percentage of residual P-Akt was calculated for each inhibitor concentration by using the control vehicle as 100%. To derive the EC50, all data were plotted on a dose response curve (Graph Pad software) and the EC50 was calculated by using the non-linear regression fit (equation [log agonist] vs response–variable slope). […]
panel). […] The respective EC50 was calculated by using nonlinear

Series [2] in a line: Microsomial stability, mouse. Format: in vitro ADME. Particulars: mouse liver microsomes, NADPH. Here is the method: To define whether this prodrug was suitable for inhaled administration, CL27c was studied to evaluate selected ADME (absorption, distribution, metabolism, and excretion) and pharmacokinetic properties. First, stability of CL27c and CL27e was analyzed in mouse plasma (Supplementary Table 1) and in mouse, rat, and human liver microsomes in the presence of nicotinamide adenine dinucleotide phosphate (NADPH; Supplementary Table 2). Next, clearance of CL27c was analyzed in C57BL/6J mice after either intra-venous or oral administration. […] Clearance of CL27c and CL27e after oral administration could not be determined due to their low bioavailability (Supplementary Table 3). […]
(§1) obtained at 200 × magnification were analyzed using the software Image -J (NIH, USA). Results were expressed as extracellular matrix deposition area (pixels). […]
(§2) Akt phosphorylation was measured by western blot as described in the “Western blot analysis” in […]
(§3) Cells were obtained from Lymph nodes and spleen from naive C57Bl/6J and purified with CD4 T cell isolation Kit (Miltenyi Biotec #130-104-454) and with CD25 biotin (eBioscience #13-0252-81) and microbeads anti-biotin (Miltenyi Biotec #130-090-485). […] Positive stained cells were analyzed with FlowJo X software after removal of doublets events and debris through FSC-A/FSC-H gating.
For orientation: Liver microsomes are vesicles of endoplasmic reticulum, rich in cytochrome P450 enzymes.

For series [3], the system named is in vitro differentiated Treg. The series can be described thus: Treg viability assessment. Particulars: 72 h; tested 1, 3, 10 or 30 uM. Format: cell-based, C57BL/6 mice. Here is the method: Cells were obtained from Lymph nodes and spleen from naive C57BL/6. Cells were then purified with CD4 T cell isolation Kit and with CD25 biotin and microbeads anti-biotin. Purified cells were cultured for 72 h in a 96-wells plate with anti-CD3/CD28 coated (1 ug/ml), TGF-B (1 ng/ml), or Cl27C (1, 3, 10 or 30 uM). After 72 h, the cells were harvested and stained with PBS (2% Bovine serum fetal) and anti-CD4 and fixable viability dye for 10 min. Cells were then fixed and permeabilized with intracellular fixation and permeabilization buffer set (eBioscience). Anti-FoxP3 was used for […]. After the staining, the cells were acquired with FACS VERSE machine and analyzed by FlowJo X software. […]
as §1, §2, §3

For `COC(=O)c1cccc(Cn2cc(-c3cccc4c(=O)cc(N5CCOCC5)[nH]c34)nn2)c1` [CL27c], the Akt/PKB phosphorylation entry in series [1] is “readily reduced Akt/PKB phosphorylation”. In addition, in series [2], the “Clint (intrinsic clearance)” value was found to be 0.1 ± 0.02 ml/min/mg prot and the t1/2 stood at 12.4 ± 2.0 min. Also, the “concentration with toxic effects on Treg viability” value in series [3] was found to be 30 µM.
